Consider 2 compounds from patent publication US5665886A, “Salts of substituted nitrogenous heteroaromatic compounds, a process for their preparation and pharmaceutical compositions containing them” (Sanofi, priority 1994, dated 1997).

The subject of this test is substance P receptor NK1. Kind of test: Binding (inhibition of fixation) of [125I]BH-SP to NK1 receptors in rat cortex, guinea pig ileum and human lymphoblastic cells. Here is the method: The affinity of compounds for tachykinin receptors has been evaluated in vitro by a number of biochemical tests using radioligands: 1) Bonding of [^125 I]BH-SP (substance P labelled with iodine-125 using a Bolton-Hunter reagent) to NK1 receptors in the rat cortex, the guinea pig ileum and human lymphoblastic cells. The tests were carried out as described in X. Emonds et al., (Eur. J. Pharmacol., 1993, 250, 403-413).

For the compound `CC(C)Oc1cccc(CC(=O)N(C)CC(CC[n+]2ccc(Cc3ccccc3)cc2)c2ccc(Cl)c(Cl)c2)c1` (centres unmarked) [Example 2, 4-benzyl-1-[3-(3,4-dichlorophenyl)-4)-4-[N-methyl-(3-iso-propyloxyphenyl)acetylamino]butyl]pyridinium methanesulfonate dihydrate], the “antagonism of substance P receptor NK1” value was “powerful antagonists”.
For `CC(C)Oc1cccc(CC(=O)N2CCCC(CC[n+]3ccc(Cc4ccccc4)cc3)(c3ccc(Cl)c(Cl)c3)C2)c1.O.O.[Cl-]` (centres unmarked) [Example 4, 4-benzyl-1-[2-[3-(3,4-dichlorophenyl)-1-[(3-isopropoxyphenyl)-acetyl]piperidin-3-yl]ethyl]pyridinium chloride dihydrate] the value was “powerful antagonists”.
